US8999315B2, “Bis-quaternary ammonium salt corrosion inhibitors” (Nalco Company, priority 2004, dated 2015)

Assays:
[1] = Wheelbox Test (corrosion of coupons in CO2-purged brine/hydrocarbon); details: actives only, 24 hours at 176° F., brine/LVT 200, 500 ppm acetic acid
Procedure: Cleaned and pre-weighed coupons are put into bottles containing a mixture of brine (180 mL), and hydrocarbon (LVT 200, 20 mL) and 500 ppm of acetic acid and the resulting mixture is purged with carbon dioxide. An increasing amount of tested inhibitor (5, 10, 25 and 50 ppm) is added into the bottles, the air space in the bottles is purged with CO2 mixture and immediately capped to avoid air contamination. In addition to those bottles that are dosed with inhibitor, three bottles remain untreated. The complete set of capped test bottles is set on the rotating wheel, and run for 24 hours at 176° F. On conclusion of the test, the bottles are removed and allowed to cool to room temperature. The bottles are then uncapped and the coupons are removed, cleaned, dried and re-weighed. Corrosion rate and protection efficiency are then calculated by comparing the mass loss of inhibited coupons to those of the blanks.
Comparative test results for representative bis-quaternary ammonium salts prepared according to the methods of Examples 1 and 2 and a commercially available quaternary ammonium salt are shown in Table 1.

[2] = Field Trial, corrosion rate by electrical resistance MicroCor probes in a production line; details: corrosion inhibitor formulations, gas/oil/brine multiphase flow
Description: Field corrosion rate data are obtained from a production line in an Alaskan field that is equipped with high sensitivity electrical resistance MicroCor probes (Rohrback Cosasco Systems, Santa Fe Springs, Calif.). The sensing element of the probe, positioned into gas/oil/brine multiphase flow, reads a cumulative metal loss that is transformed into corrosion rate. Once an uninhibited corrosion rate baseline has been established, corrosion inhibitor formulations are incrementally injected upstream of the probe over a period of thirty hours. The resulting drop in corrosion rates are used to calculates protection efficiency and establish the relative rankings of corrosion inhibitor formulations.
Comparative test results for representative bis-quaternary ammonium salts prepared according to the methods of Examples 1 and 2, a commercially available quaternary ammonium salt and a commercially available alkylbenzyldimethylammonium salt are shown in Table 2.

[3] = tested on: sulfate-reducing bacteria; test: Biostatic Assay (NACE standard, serial dilution); format: cell-based; details: actives only
Procedure: The biostatic properties of representative bis-quaternary ammonium salts are characterized according to the current NACE standard—NACE TMO194094. Viable organisms are cultured from aqueous field samples in iron-rich media purchased from Commercial Microbiology (Houston, Tex.). Stock solutions of the viable organisms in ferrous media are serially diluted in triplicate. Black iron sulfide precipitates indicate micobial growth (of sulfate-reducing bacteria). Clear media solutions indicate complete cell death. Pure media solutions are used as controls and compared against media spiked with 5 to 500 ppm of a test compound. Additives that require increased dilutions to attain complete cell death […], relative to the standard. Those compounds that required fewer dilutions are relatively biostatic.
Comparative test results for representative bis-quaternary ammonium salts prepared according to the methods of Examples 1 and 2 and commercially available quaternary ammonium salts A and B are shown in Table 3.

Row | Structure (SMILES) | Percent Protection ([1]; 5 ppm inhibitor) [%] | Percent Protection ([1]; 10 ppm inhibitor) [%] | Percent Protection ([1]; 25 ppm inhibitor) [%] | Percent Protection ([1]; 50 ppm inhibitor) [%] | Percent Protection ([2]; 3 ppm) [%] | Percent Protection ([2]; 6 ppm) [%] | Percent Protection ([2]; 11 ppm) [%] | Percent Protection ([2]; 22 ppm) [%] | Percent Protection ([2]; 44 ppm) [%] | log reduction of SRB growth ([3]; 10 ppm) [log] | log reduction of SRB growth ([3]; 25 ppm) [log] | log reduction of SRB growth ([3]; 100 ppm) [log]
1 | CCCCCCCCCCCC[N+](C)(C)CC(O)C[N+](C)(C)CCCCCCCCCCCC.CCCCCCCCCCCC[N+](C)(C)CC(O)C[N+](C)(C)CCCCCCCCCCCC.O=S(=O)([O-])[O-].[Cl-].[Cl-] [Example 1] | 65 | 81 | 92 | 91 | 60.5 | 87.6 | 89.8 | 91.8 | 98.3 | 6 | 6 | 6
2 | CCCCCCCCC=CCCCCCCCCN(CC(O)C[N+](C)(C)CCCCCCCCCCCC)CC(O)C[N+](C)(C)CCCCCCCCCCCC.[Cl-].[Cl-] (stereo not drawn) [Example 2] | 21 | 73 | 86 | 89 | 76.2 | 96.2 | 95.3 | 97.8 | 98.0 | 0 | 6 | 6
